This is an account of results in patent US7326574B2, “Compositions and methods for detecting stress-inducible proteins” (Stressgen Biotechnologies Corporation, priority 1999, dated 2008).

Assay [1] deals with HeLa cells. The experiment in a line: Induction of Hsc70, Hsp70A and Hsp70B′ proteins under different induction conditions, Western blotting. The assay is classed as cell-based, human. The following applies: Azetidine 5 μM, 5 hours, CdCl2 100 μM, 2 hours, ZnCl2 250 μM; for Induction of Hsc70, relative protein level: 20 ug total cell lysate.
The subject of assay [2] is Jurkat cells. The description is as above. The following applies: Azetidine 5 μM, 5 hours, CdCl2 100 μM, 2 hours, ZnCl2 250 μM. The assay is classed as cell-based, human.
The test system of assay [3] is A431 cells. The description is as above. Format: cell-based, human. The following applies: Azetidine 5 μM, 5 hours, CdCl2 100 μM, 2 hours, ZnCl2 250 μM.
Assay [4] concerns HeLa, Jurkat and A-431 human cell lines. The experiment in a line: Relative induction of Hsc70, Hsp70A and Hsp70B′ proteins. The assay is classed as cell-based.
For assay [5], the system named is hsp70B′ mRNA. The following applies: Leung et al., Biochem. J. 267:125-132, 1990; cited from earlier work.
The subject of assay [6] is immunizing peptide. The experiment in a line: Anti-peptide titre ELISA with peptide on the solid phase. The assay is classed as binding, human. The following applies: rabbit host. The method, then: Methods: Hsp70B′ Antibodies were produced as follows. Hsp70B′ antibodies were produced in rabbits, goats and mice with either synthetic peptides or recombinant Hsp70B′ protein as immunogen. Eight peptides were chosen from the human Hsp70B′ amino acid sequence. One of the Hsp70B′ peptides, the NT peptide […](C) (SEQ ID NO:9) corresponded to an N-terminal fragment. […] Sera were collected at various time points and the antibody response to the immunizing protein or peptide was evaluated in an indirect enzyme immunoassay (EIA). Titres were established as the dilution factor at which the absorbance in the test sample was equal to 0.2 optical density units. […]
Anti-peptide titre was determined as follows. […] The anti-peptide titres in the rabbits, goats, and mice were determined in an ELISA with peptide on the solid phase. […]
Biotinylated secondary antibodies (100 μl) were added to each microtitre plate test well and incubated for four hours at room temperature. […] The plates were read at 414 λ, 20 minutes following the addition of substrate. Titres were established as the reciprocal dilution factor at which the test sample was equal to 0.2 absorbance units.

Assay [7] has as its target T1, Hsp70B′ (Homo sapiens, UniProt P17066).
T1 construct: E. coli BL21 (DE3) cells harboring the expression plasmid for full length human Hsp70B′; made in house; host or cells: E. coli BL21 (DE3) / BLR (DE3), pET24a
The experiment in a line: Indirect EIA, relative titre index. The assay is classed as binding.

Assay [8] concerns the target T2, recombinant bovine Hsc70 (Bos taurus, UniProt P19120).
T2 construct: purchased Stressgen Biotechnologies SPP-751
As to the kind of experiment: Indirect EIA, relative titre index. Format: binding. The following applies: Hsc70 Protein; relative to irrelevant antibody.

In assay [9] the target is T3, recombinant human Hsp70A (Homo sapiens, UniProt P0DMV8).
T3 construct: purchased Stressgen Biotechnologies SPP-755
The experiment in a line: Indirect EIA, relative titre index. Format: binding. The following applies: Hsp70A Protein; relative to irrelevant antibody.

In assay [10] the target is T4, recombinant hamster Grp78 (Mesocricetus auratus, UniProt P07823).
T4 construct: purchased Stressgen Biotechnologies SPP-765
The experiment in a line: Indirect EIA, relative titre index. Format: binding. The following applies: Grp78 Protein; relative to irrelevant antibody.

For assay [11], the target named is T5, unconjugated CB2 peptide (Homo sapiens, UniProt P17066).
T5 construct: The CB peptide was also resynthesized on a separate occasion and designated CB2; purchased Research Genetics, Inc; host or cells: chemical synthesis
As to the kind of experiment: Indirect EIA, relative titre index. Format: binding. The following applies: relative to irrelevant antibody.

Assay [12] has as its target T6, unconjugated ECB peptide (Homo sapiens, UniProt P17066).
T6 construct: purchased Research Genetics, Inc; host or cells: chemical synthesis
The experiment in a line: Indirect EIA, relative titre index. The assay is classed as binding. The following applies: relative to irrelevant antibody.

For assay [13], the target named is T7, unconjugated TCB peptide (Homo sapiens, UniProt P17066).
T7 construct: purchased Research Genetics, Inc; host or cells: chemical synthesis
The experiment in a line: Indirect EIA, relative titre index. Format: binding. The following applies: relative to irrelevant antibody.

Assay [14] deals with T8, unconjugated CE peptide (Homo sapiens, UniProt P17066).
T8 construct: purchased Research Genetics, Inc; host or cells: chemical synthesis
As to the kind of experiment: Indirect EIA, relative titre index. The following applies: relative to irrelevant antibody. The assay is classed as binding.

In assay [15] the target is T1, Hsp70B′. As to the kind of experiment: Western blotting of HSP70 family members. Format: binding. The following applies: SDS-denatured recombinant protein; band intensity 0-3. Background: In western blotting, separated proteins are transferred to a membrane and probed.
Assay [16] addresses T9, 68 kDa (Hsp70B′) protein from HeLa cell lysates (Homo sapiens, UniProt P17066).
T9 construct: endogenous in cells; host or cells: HeLa (ATCC CCL-2), unstressed and heat stressed
As to the kind of experiment: Immunoblotting of unstressed and heat stressed human cell lysates. The assay is classed as binding. Set-up: key to Reactivity with 68 kDa (Hsp70B′) protein, HeLa: 0 = no signal; 3 = a very strong signal.

In assay [17] the target is E. coli DnaK (Escherichia coli, UniProt P0A6Y8).
For assay [18], the target named is recombinant M. tuberculosis Hsp71 (Mycobacterium tuberculosis, UniProt P9WMJ9).
recombinant M. tuberculosis Hsp71, sequence (P9WMJ9 whole entry): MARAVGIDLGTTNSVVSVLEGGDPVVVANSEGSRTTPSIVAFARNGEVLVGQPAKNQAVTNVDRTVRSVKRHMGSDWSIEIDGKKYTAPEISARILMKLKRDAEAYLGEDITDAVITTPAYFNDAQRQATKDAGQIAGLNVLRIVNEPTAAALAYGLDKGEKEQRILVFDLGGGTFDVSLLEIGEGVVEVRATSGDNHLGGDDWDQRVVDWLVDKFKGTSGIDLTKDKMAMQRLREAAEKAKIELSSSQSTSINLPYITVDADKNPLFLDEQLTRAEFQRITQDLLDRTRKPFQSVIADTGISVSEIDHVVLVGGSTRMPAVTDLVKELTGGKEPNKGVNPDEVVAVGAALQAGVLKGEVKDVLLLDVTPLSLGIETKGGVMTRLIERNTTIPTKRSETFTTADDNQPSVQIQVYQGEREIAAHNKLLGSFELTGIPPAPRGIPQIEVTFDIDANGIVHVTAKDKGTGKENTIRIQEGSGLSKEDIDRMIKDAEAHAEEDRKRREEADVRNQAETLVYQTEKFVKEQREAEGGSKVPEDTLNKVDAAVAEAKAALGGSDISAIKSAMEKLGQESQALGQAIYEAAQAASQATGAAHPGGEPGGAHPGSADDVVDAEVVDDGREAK

T1 sequence (P17066 whole entry): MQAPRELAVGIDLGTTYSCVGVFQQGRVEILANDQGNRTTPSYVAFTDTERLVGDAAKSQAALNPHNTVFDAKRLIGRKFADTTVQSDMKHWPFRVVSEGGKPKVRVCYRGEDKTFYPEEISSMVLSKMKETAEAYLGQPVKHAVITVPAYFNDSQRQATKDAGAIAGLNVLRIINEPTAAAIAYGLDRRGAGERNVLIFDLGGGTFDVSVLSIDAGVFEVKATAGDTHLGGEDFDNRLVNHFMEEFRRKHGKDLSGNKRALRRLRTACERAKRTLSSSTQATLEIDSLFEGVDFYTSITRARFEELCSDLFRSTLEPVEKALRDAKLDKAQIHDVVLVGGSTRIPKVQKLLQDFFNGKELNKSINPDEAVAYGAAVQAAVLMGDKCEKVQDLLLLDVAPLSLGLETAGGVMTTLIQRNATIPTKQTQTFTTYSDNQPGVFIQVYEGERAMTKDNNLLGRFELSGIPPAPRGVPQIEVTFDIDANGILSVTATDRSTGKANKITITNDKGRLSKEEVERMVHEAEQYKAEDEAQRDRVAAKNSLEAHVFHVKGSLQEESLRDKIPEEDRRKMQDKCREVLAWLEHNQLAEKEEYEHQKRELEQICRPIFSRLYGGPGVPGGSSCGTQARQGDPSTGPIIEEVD
T9 sequence (P17066 whole entry): as above
T3 sequence (P0DMV8 whole entry): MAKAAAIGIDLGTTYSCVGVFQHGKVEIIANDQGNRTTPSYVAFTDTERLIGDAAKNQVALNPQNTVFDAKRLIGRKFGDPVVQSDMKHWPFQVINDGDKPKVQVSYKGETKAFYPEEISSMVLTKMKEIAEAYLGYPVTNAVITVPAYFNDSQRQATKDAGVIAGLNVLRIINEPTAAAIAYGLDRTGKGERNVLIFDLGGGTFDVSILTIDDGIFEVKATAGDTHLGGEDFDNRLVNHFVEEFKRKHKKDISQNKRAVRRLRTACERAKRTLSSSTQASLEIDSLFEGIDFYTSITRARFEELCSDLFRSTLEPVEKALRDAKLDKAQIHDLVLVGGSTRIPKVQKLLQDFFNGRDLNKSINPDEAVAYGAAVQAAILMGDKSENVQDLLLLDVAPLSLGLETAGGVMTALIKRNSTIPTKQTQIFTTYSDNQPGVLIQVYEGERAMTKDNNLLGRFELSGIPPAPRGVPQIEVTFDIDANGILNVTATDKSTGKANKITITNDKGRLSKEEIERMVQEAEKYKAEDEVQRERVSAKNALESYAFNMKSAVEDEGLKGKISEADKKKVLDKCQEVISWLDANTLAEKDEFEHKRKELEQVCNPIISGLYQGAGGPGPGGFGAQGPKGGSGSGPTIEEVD
E. coli DnaK, sequence (P0A6Y8 whole entry): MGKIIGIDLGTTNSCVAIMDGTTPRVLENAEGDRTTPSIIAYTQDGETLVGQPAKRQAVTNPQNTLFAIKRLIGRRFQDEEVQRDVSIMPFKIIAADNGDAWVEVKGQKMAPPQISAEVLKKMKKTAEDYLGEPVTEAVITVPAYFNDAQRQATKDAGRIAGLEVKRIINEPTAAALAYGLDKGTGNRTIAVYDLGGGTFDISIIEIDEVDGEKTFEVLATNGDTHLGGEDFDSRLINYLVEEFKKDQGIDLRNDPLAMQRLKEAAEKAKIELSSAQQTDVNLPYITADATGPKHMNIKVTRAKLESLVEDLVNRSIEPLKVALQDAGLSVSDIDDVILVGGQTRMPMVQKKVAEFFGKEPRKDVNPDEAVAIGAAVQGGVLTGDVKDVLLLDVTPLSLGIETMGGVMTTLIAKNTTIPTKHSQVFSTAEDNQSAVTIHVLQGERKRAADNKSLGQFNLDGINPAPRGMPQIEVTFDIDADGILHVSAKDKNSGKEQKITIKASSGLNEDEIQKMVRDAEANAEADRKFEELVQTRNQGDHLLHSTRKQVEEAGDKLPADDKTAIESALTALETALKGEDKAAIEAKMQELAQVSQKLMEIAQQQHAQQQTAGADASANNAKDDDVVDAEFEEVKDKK
T2 sequence (P19120 whole entry): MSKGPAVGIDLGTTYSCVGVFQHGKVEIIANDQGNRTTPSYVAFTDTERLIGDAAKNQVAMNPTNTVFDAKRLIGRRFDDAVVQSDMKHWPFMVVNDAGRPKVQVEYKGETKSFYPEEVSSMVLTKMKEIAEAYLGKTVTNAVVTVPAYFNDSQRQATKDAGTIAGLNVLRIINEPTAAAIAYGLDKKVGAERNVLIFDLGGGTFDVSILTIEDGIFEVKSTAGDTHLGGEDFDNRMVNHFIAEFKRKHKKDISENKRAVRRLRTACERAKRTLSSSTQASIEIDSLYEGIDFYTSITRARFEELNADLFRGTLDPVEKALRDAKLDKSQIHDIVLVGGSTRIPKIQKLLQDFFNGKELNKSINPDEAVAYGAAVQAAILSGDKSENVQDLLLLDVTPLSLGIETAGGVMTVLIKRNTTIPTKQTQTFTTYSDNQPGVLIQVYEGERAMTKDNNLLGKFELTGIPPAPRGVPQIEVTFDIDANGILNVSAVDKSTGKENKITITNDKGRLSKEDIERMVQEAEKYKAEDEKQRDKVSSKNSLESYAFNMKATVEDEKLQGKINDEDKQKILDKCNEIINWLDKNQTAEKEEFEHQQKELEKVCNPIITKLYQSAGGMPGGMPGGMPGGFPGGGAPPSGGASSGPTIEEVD
T4 sequence (P07823 19-654): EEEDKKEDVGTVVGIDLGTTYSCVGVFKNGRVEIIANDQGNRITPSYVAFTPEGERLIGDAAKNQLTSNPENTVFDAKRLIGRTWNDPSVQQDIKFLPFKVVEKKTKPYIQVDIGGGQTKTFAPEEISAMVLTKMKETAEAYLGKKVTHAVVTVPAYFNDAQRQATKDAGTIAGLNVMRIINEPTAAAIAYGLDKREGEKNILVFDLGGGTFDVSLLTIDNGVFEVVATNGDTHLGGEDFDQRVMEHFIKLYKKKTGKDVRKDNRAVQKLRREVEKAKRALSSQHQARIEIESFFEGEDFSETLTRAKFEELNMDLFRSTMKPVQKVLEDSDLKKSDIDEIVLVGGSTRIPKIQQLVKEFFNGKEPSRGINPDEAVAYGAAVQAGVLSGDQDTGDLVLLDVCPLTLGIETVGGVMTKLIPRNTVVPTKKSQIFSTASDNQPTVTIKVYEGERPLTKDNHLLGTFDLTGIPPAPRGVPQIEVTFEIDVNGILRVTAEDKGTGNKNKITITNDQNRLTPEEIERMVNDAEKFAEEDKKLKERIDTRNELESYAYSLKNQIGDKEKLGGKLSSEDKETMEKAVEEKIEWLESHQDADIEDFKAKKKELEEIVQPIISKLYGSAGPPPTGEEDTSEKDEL

Consider `[Cl][Cd][Cl]` [CdCl2], for which, in assay [1], the “Induction of Hsp70A, relative protein level” value was “+3”; the “Induction of Hsp70A/B′, relative protein level” value is on record as “+3”; the “Induction of Hsp70B′, relative protein level” value is listed as “+2”; the “Induction of Hsc70, relative protein level” value is reported as “+3”. In [2], the “Induction of Hsc70, relative protein level” value was “+3”; the “Induction of Hsp70A, relative protein level” value is given as “+2”; the “Induction of Hsp70A/B′, relative protein level” value is listed as “+2”; the “Induction of Hsp70B′, relative protein level” value is “+3”. Moreover, in [3], the “Induction of Hsc70, relative protein level” value was “+3”; the “Induction of Hsp70A, relative protein level” value is given as “+2”; the “Induction of Hsp70A/B′, relative protein level” value was “+3”; the “Induction of Hsp70B′, relative protein level” value is given as “+1”. In assay [4], the “Expression of the constitutive Hsc70 protein” value is recorded as “not affected” and the “Induction of Hsp70B′ protein” value is “induced”. Also, in assay [5], the “hsp70B′ mRNA after treatment” value was “only trace amounts”.

As to `[Cl-].[Cl-].[Zn+2]` [ZnCl2], in assay [1], the “Induction of Hsp70A, relative protein level” value is recorded as “+3”; the “Induction of Hsp70A/B′, relative protein level” value is recorded as “+3”; the “Induction of Hsp70B′, relative protein level” value is listed as “+1”; the “Induction of Hsc70, relative protein level” value is “+3”. For the same molecule, in assay [2], the “Induction of Hsc70, relative protein level” value is on record as “+3”; the “Induction of Hsp70A, relative protein level” value is reported as “+2”; the “Induction of Hsp70A/B′, relative protein level” value is reported as “+1”; the “Induction of Hsp70B′, relative protein level” value is “+1”. Moreover, in [3], the “Induction of Hsc70, relative protein level” value is on record as “+3”; the “Induction of Hsp70A, relative protein level” value is given as “+2”; the “Induction of Hsp70A/B′, relative protein level” value was “+3”; the “Induction of Hsp70B′, relative protein level” value is given as “+2”. Also, in assay [4], the “Expression of the constitutive Hsc70 protein” value is “not affected” and the “Induction of Hsp70B′ protein” value is on record as “induced”.

For the molecule ECB (VPGGSSCGTQARQGDPSTGPI), the “# Animals Responding” value in assay [6] is reported as 3/3. The “Antisera Titer (EIA)” value in [6] (individual animals, reciprocal dilution giving 0.2 absorbance units) is greater than 204800. The “Relative Titre Index” value in [7] (Hsp70B′ Protein, relative to irrelevant antibody, rabbit antibody) is reported as “≧41”; in assay [8], 1; in assay [9], 1; in assay [10], 1; in assay [11] it was “≧86”; in assay [12], “≧129”. The “Relative Titre Index” value in assay [13] is “*1”; in assay [14] it was 1; in [17], 1; in [18], 1. The “Preferential reactivity with Hsp70B′ over other HSP70 protein homologs” value in assay [7] (based on absolute relative titre index values) was determined as 41 fold. In assay [15], the “Hsp70B′ Reactivity Rec. protein” value stood at 3. Also, the “Reactivity with 68 kDa (Hsp70B′) protein, HeLa HS” value in [16] (heat stressed HeLa lysate, 10-20 μg) came to 3. In addition, the “Antisera that specifically detected Hsp70B′ in immunoblots (fraction of rabbits)” value in [16] (sera from three individual rabbits) is “⅓”. Also, the “Reactivity with 68 kDa (Hsp70B′) protein, HeLa” value in assay [16] (unstressed HeLa lysate, 10-20 μg) was determined as 0.
